For three molecules, Activity and Drug metabolism results are on record in ChEMBL document CHEMBL4007476, “Chemical synthesis, redox transformation, and identification of sonnerphenolic C, an antioxidant in Acer nikoense” (Bioorg Med Chem Lett, 2017).

Series [1] in a line: Antioxidant activity assessed as DPPH radical scavenged per mole of compound after 20 mins. It counts as functional.
In series [2] the target is T1, Tyrosinase (Homo sapiens, UniProt P14679).
T1 sequence (P14679 whole entry): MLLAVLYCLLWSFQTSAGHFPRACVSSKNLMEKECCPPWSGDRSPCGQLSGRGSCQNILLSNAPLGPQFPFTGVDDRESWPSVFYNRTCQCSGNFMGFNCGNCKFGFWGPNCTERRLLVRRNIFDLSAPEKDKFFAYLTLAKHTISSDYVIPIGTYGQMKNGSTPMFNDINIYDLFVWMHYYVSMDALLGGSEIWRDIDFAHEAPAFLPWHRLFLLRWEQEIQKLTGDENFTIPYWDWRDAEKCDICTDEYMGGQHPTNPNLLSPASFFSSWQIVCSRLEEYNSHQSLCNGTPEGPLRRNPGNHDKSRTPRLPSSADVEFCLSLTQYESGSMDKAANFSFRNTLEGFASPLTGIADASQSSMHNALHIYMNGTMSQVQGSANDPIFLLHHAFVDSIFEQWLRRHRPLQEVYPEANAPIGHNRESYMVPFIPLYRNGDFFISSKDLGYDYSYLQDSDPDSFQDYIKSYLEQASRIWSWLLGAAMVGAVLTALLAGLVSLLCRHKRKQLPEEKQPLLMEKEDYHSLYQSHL
In words: Drug level treated with 10 mM epirhododendrin assessed as tyrosinase (unknown origin)-mediated redox transformation in presence of vitamin C by HPLC analysis. The format is ADME.

For series [3], the target named is T1, Tyrosinase. Briefly: Drug metabolism assessed as tyrosinase (unknown origin)-mediated redox transformation by measuring sonnerphenolic C formation at 10 mM in presence of vitamin C by HPLC analysis. The format is ADME. The note with it: 10000 µM.

Take `C[C@@H](CCc1ccc(O)c(O)c1)O[C@@H]1O[C@H](CO)[C@@H](O)[C@H](O)[C@H]1O`: the Activity in series [1] came to 2.23 mol. The Drug metabolism entry on Tyrosinase [2] is “Metabolite_Detected”.
For the molecule `C[C@@H](CCc1ccc(O)cc1)O[C@@H]1O[C@H](CO)[C@@H](O)[C@H](O)[C@H]1O`, the Drug metabolism result at Tyrosinase [3] is “Metabolite_Detected”. The Activity in series [1] turned out to be 0 mol.
Turning to VITAMIN E, the Activity in series [1] worked out at 1.86 mol.
